# Measured values: US10633419B2, “Immunomodulators” (BRISTOL-MYERS SQUIBB COMPANY, priority 2014, dated 2020)
# Starred links: 1 amine or outer side, 2 acyl side, 3 side chain; linkers in the order of their positions; H or OH if unused. Positions of bridges follow the written chain, without caps; N, C: chain ends. Non-standard residues stand in square brackets, D forms with d. Residues, ends and D or L forms follow the SMILES beside them. Groups on a side chain read outwards from the residue. *: point of attachment. Dap(Nα-HOOC(CH2)16CO)OH = O=C(O)CCCCCCCCCCCCCCCCC(=O)N[C@@H](CN*)C(=O)O; X18 = O=C(O)CCCCCCCCCCCCCCC(=O)N[C@@H](CC(=O)NCCCOCCOCCOCCCN*)C(=O)O; Trp(1-CH2COOH) = N[C@@H](Cc1cn(CC(=O)O)c2ccccc12)C(=O)O; C18 diacid = O=C(O)CCCCCCCCCCCCCCCCC(=O)*; γGlu = O=C(O)[C@H](CCC(=O)[*:2])N[*:1]; X19 = O=C(C1C[C@H](O)CN1[*:1])[*:2]; Palmitoyl = CCCCCCCCCCCCCCCC(=O)*; Hyp = O=C(O)[C@@H]1C[C@@H](O)CN1; Undecanoyl = CCCCCCCCCCC(=O)*; NMeNle = CCCC[C@H](NC)C(=O)O; Pip = O=C(O)[C@@H]1CCCCN1; NMeA = CN[C@@H](C)C(=O)O; Dab = NCC[C@H](N)C(=O)O; Dap = NC[C@H](N)C(=O)O
# Biological target: T1, PD-L1 (Homo sapiens, UniProt Q9NZQ7)
# T1 construct: hPDL1(19-239)-TVMV-His; made in house; host or cells: HEK293T
# Assay: PD-1/PD-L1 Homogenous Time-Resolved Fluorescence (HTRF) binding assay (PD-1-Ig/PD-L1-His)
# Settings: inhibition of PD-1-Ig binding to PD-L1-TVMV-His; value given as range class; read-out: HTRF IC50
# How it was run: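 Inhibitors pre-incubated 15 min with PD-L1-His (10 nM final), then PD-1-Ig (20 nM final) added for 15 min in dPBS/0.1% BSA/0.05% Tween-20. Eu-cryptate anti-Ig (1 nM) and APC anti-His (20 nM) added, 30 min equilibration, 665/620 nm HTRF ratio read.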
# T1 sequence (Q9NZQ7 with tags, fused parts or gaps): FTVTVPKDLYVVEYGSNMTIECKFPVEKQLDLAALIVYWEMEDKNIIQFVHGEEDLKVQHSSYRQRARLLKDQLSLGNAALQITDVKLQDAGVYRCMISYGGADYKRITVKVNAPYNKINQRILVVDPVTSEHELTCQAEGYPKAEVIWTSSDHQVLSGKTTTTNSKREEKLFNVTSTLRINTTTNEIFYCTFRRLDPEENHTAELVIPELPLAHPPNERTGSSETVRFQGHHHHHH
row,Structure (SMILES),IC50 [nM]
1,CCCCCCCCCCCCCCCC(=O)NCCCC[C@H](NC(=O)[C@H](CO)NC(=O)CNC(=O)CNC(=O)CNC(=O)[C@@H]1CSCC(=O)N[C@@H](Cc2ccc(O)cc2)C(=O)N(C)[C@@H](C)C(=O)N[C@@H](CC(N)=O)C(=O)N2CCC[C@H]2C(=O)N[C@@H](CCN)C(=O)N[C@@H](CC(C)C)C(=O)N2C[C@H](O)C[C@H]2C(=O)N[C@@H](Cc2c[nH]c3ccccc23)C(=O)N[C@@H](CO)C(=O)N[C@@H](Cc2c[nH]c3ccccc23)C(=O)N(C)[C@@H](CCCC)C(=O)N(C)[C@@H](CCCC)C(=O)N[C@@H](CCCNC(=N)N)C(=O)N1)C(N)=O [Example 11024] ({CH2CO}-Y[NMeA]NP[Dab]L[Hyp]WSW[NMeNle][NMeNle]RCGGGSK(Palmitoyl)-NH2; thioether N-14),100 to 1600
2,CCCCCCCCCCC(=O)NCCCC[C@H](NC(=O)[C@H](CC(=O)O)NC(=O)CNC(=O)[C@@H]1CSCC(=O)N[C@@H](Cc2ccc(O)cc2)C(=O)N(C)[C@@H](C)C(=O)N[C@@H](CC(N)=O)C(=O)N2CCC[C@H]2C(=O)N[C@@H](CCN)C(=O)N[C@@H](CC(C)C)C(=O)N2C[C@H](O)C[C@H]2C(=O)N[C@@H](Cc2c[nH]c3ccccc23)C(=O)N[C@@H](CO)C(=O)N[C@@H](Cc2c[nH]c3ccccc23)C(=O)N(C)[C@@H](CCCC)C(=O)N(C)[C@@H](CCCC)C(=O)N[C@@H](CCCNC(=N)N)C(=O)N1)C(N)=O [Example 11005] ({CH2CO}-Y[NMeA]NP[Dab]L[Hyp]WSW[NMeNle][NMeNle]RCGDK(Undecanoyl)-NH2; thioether N-14),10 to 99
3,CCCC[C@H]1C(=O)N(C)[C@@H](CCCC)C(=O)N[C@@H](CC(C)C)C(=O)N[C@H](C(=O)NCC(=O)N[C@@H](CCC(=O)NCCCOCCOCCOCCCNC(=O)C[C@H](NC(=O)CCCCCCCCCCCCCCC(=O)O)C(=O)O)C(=O)O)CSCC(=O)N[C@@H](Cc2ccc(O)cc2)C(=O)N(C)[C@@H](C)C(=O)N[C@@H](CC(N)=O)C(=O)N2CCC[C@@H]2C(=O)N[C@@H](CN)C(=O)N[C@@H](CC(C)C)C(=O)N2C[C@@H](O)CC2C(=O)N[C@@H](Cc2c[nH]c3ccccc23)C(=O)N[C@@H](CCN)C(=O)N[C@@H](Cc2cn(CC(=O)O)c3ccccc23)C(=O)N1C (some centres unmarked) [Example 11243] ({CH2CO}-Y[NMeA]N[dP][Dap]L[X19]W[Dab][Trp(1-CH2COOH)][NMeNle][NMeNle]LCGE(X18)-OH; thioether N-14),100 to 1600

# Next, values leading:
row,IC50 [nM],Structure (SMILES)
1,0.3 to 9.9,CCCC[C@H]1C(=O)N(C)[C@@H](CCCC)C(=O)N[C@@H](CC(C)C)C(=O)N[C@H](C(=O)NCC(=O)N[C@@H](CNC(=O)CC[C@H](NC(=O)CCCCCCCCCCCCCCCCC(=O)O)C(=O)O)C(=O)O)CSCC(=O)N[C@@H](Cc2ccc(O)cc2)C(=O)N2CCCC[C@H]2C(=O)N[C@@H](CC(N)=O)C(=O)N2CCC[C@H]2C(=O)N[C@@H](CN)C(=O)N[C@@H](CC(C)C)C(=O)N2C[C@H](O)C[C@H]2C(=O)N[C@@H](Cc2c[nH]c3ccccc23)C(=O)N[C@@H](CCN)C(=O)N[C@@H](Cc2cn(CC(=O)O)c3ccccc23)C(=O)N1C [Example 13152] ({CH2CO}-Y[Pip]NP[Dap]L[Hyp]W[Dab][Trp(1-CH2COOH)][NMeNle][NMeNle]LCG[Dap]([γGlu-C18 diacid])-OH; thioether N-14)
2,100 to 1600,CCCC[C@H]1C(=O)N(C)[C@@H](CCCC)C(=O)N[C@@H](CC(C)C)C(=O)N[C@H](C(=O)NCC(=O)N[C@@H](CCC(=O)NC[C@H](NC(=O)CCCCCCCCCCCCCCCCC(=O)O)C(=O)O)C(=O)O)CSCC(=O)N[C@@H](Cc2ccc(O)cc2)C(=O)N(C)[C@@H](C)C(=O)N[C@@H](CC(N)=O)C(=O)N2CCC[C@H]2C(=O)N[C@@H](CN)C(=O)N[C@@H](CC(C)C)C(=O)N2C[C@H](O)C[C@H]2C(=O)N[C@@H](Cc2c[nH]c3ccccc23)C(=O)N[C@@H](CCN)C(=O)N[C@@H](Cc2cn(CC(=O)O)c3ccccc23)C(=O)N1C [Example 11173] ({CH2CO}-Y[NMeA]NP[Dap]L[Hyp]W[Dab][Trp(1-CH2COOH)][NMeNle][NMeNle]LCGE(Dap(Nα-HOOC(CH2)16CO)OH)-OH; thioether N-14)
